Results reported in the supplement of paper PMC11451515.

Assays:
Details in all cases: 48 h
P12-Ichikawa [1] = test: AUC of viability dose-response curve (% viability x log10 dose units); higher = less sensitive
Procedure, shortened: (§1)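 In 1536-well plates, leukemia cells adapted to each medium (500 or 1000 cells/well) were exposed for 48 h at 37°C to library compounds in DMSO across 11 threefold doses, 47 μM down to 0.79 nM. Viability was read by CellTiter-Glo One luminescence and normalised per plate to DMSO and cell-free wells. A four-parameter log-logistic fit over log10 doses was integrated by trapezoidal rule. This yielded the area under the curve, with over-full-viability curves scaled and quality-control failures dropped.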

NOMO1 [2] = test: as above
Procedure, shortened: as §1

P12-Ichikawa [3] = test: cell viability relative to DMSO control; higher = less cytotoxic
Procedure, shortened: (§2)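 Library compounds in DMSO were pin-dosed in an 11-point threefold series (47 μM to 0.79 nM) onto leukemia cells in 1536-well plates (5 μl). Plates held 500 cells/well of NOMO1 or SEM or 1000 cells/well of P12-Ichikawa, each adapted for at least four passages in each medium. Luminescence was read with CellTiter-Glo One after 48 h at 37°C. Viability means the per-plate percentage relative to DMSO wells, using cell-free wells as background.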

NOMO1 [4] = test: as above
Procedure, shortened: as §2

SEM cells [5] = test: as above
Procedure, shortened: as §2

SEM cells [6] = test: AUC of viability dose-response curve (% viability x log10 dose units); higher = less sensitive
Procedure, shortened: as §1

C[S+](=O)([O-])c1ccc(C(=O)Nc2ccc(Cl)c(-c3ccccn3)c2)c(Cl)c1
AUC of viability dose-response curve
Details	HPLM + 10% dialyzed FBS	RPMI 5 mM glucose + 10% FBS	RPMI 5 mM glucose + 10% dialyzed FBS
NOMO1 [2]	445	468	465
P12-Ichikawa [1]	464	454	462

cell viability [%]
Details	NOMO1 [4]	P12-Ichikawa [3]	SEM cells [5]
HPLM + 10% dialyzed FBS, 0.000781 µM	–	113	97.9
HPLM + 10% dialyzed FBS, 0.00234 µM	–	113	98.7
HPLM + 10% dialyzed FBS, 0.00702 µM	–	123	129
HPLM + 10% dialyzed FBS, 0.0211 µM	–	132	116
HPLM + 10% dialyzed FBS, 0.0632 µM	–	131	126
HPLM + 10% dialyzed FBS, 0.19 µM	–	135	127
HPLM + 10% dialyzed FBS, 0.569 µM	–	136	131
HPLM + 10% dialyzed FBS, 1.71 µM	–	125	122
HPLM + 10% dialyzed FBS, 5.12 µM	–	131	140
HPLM + 10% dialyzed FBS, 15.4 µM	–	126	126
HPLM + 10% dialyzed FBS, 46.1 µM	–	127	144
RPMI 5 mM glucose + 10% FBS, 0.000781 µM	–	–	100
RPMI 5 mM glucose + 10% FBS, 0.00234 µM	–	–	117
RPMI 5 mM glucose + 10% FBS, 0.00702 µM	–	–	129
RPMI 5 mM glucose + 10% FBS, 0.0211 µM	–	–	123
RPMI 5 mM glucose + 10% FBS, 0.0632 µM	–	–	126
RPMI 5 mM glucose + 10% FBS, 0.19 µM	–	–	150
RPMI 5 mM glucose + 10% FBS, 0.569 µM	–	–	121
RPMI 5 mM glucose + 10% FBS, 1.71 µM	–	–	122
RPMI 5 mM glucose + 10% FBS, 5.12 µM	–	–	153
RPMI 5 mM glucose + 10% FBS, 15.4 µM	–	–	25.2
RPMI 5 mM glucose + 10% FBS, 46.1 µM	–	–	139
RPMI 5 mM glucose + 10% dialyzed FBS, 0.000781 µM	119	–	104
RPMI 5 mM glucose + 10% dialyzed FBS, 0.00234 µM	110	–	98.5
RPMI 5 mM glucose + 10% dialyzed FBS, 0.00702 µM	138	–	136
RPMI 5 mM glucose + 10% dialyzed FBS, 0.0211 µM	143	–	120
RPMI 5 mM glucose + 10% dialyzed FBS, 0.0632 µM	130	–	131
RPMI 5 mM glucose + 10% dialyzed FBS, 0.19 µM	136	–	111
RPMI 5 mM glucose + 10% dialyzed FBS, 0.569 µM	139	–	138
RPMI 5 mM glucose + 10% dialyzed FBS, 1.71 µM	144	–	142
RPMI 5 mM glucose + 10% dialyzed FBS, 5.12 µM	144	–	127
RPMI 5 mM glucose + 10% dialyzed FBS, 15.4 µM	135	–	140
RPMI 5 mM glucose + 10% dialyzed FBS, 46.1 µM	128	–	134

Nc1ncnc2ccccc12
cell viability [%]
Details	NOMO1 [4]	P12-Ichikawa [3]	SEM cells [5]
HPLM + 10% dialyzed FBS, 0.000781 µM	77.8	87.8	83.3
HPLM + 10% dialyzed FBS, 0.00234 µM	100	92.3	87.9
HPLM + 10% dialyzed FBS, 0.00702 µM	100	95.5	93.9
HPLM + 10% dialyzed FBS, 0.0211 µM	35.2	9.38	18.9
HPLM + 10% dialyzed FBS, 0.0632 µM	97.8	106	97
HPLM + 10% dialyzed FBS, 0.19 µM	87	100	97.1
HPLM + 10% dialyzed FBS, 0.569 µM	88.3	106	109
HPLM + 10% dialyzed FBS, 1.71 µM	101	105	91.5
HPLM + 10% dialyzed FBS, 5.12 µM	88.4	105	90.5
HPLM + 10% dialyzed FBS, 15.4 µM	105	100	93.4
HPLM + 10% dialyzed FBS, 46.1 µM	105	111	99.5
RPMI 5 mM glucose + 10% FBS, 0.000781 µM	84.2	84.2	97.9
RPMI 5 mM glucose + 10% FBS, 0.00234 µM	85.9	90.7	98.7
RPMI 5 mM glucose + 10% FBS, 0.00702 µM	87.6	88.3	118
RPMI 5 mM glucose + 10% FBS, 0.0211 µM	18.6	13.7	13.2
RPMI 5 mM glucose + 10% FBS, 0.0632 µM	97.6	104	123
RPMI 5 mM glucose + 10% FBS, 0.19 µM	91.4	102	102
RPMI 5 mM glucose + 10% FBS, 0.569 µM	101	105	96.9
RPMI 5 mM glucose + 10% FBS, 1.71 µM	95.4	97.2	123
RPMI 5 mM glucose + 10% FBS, 5.12 µM	88.3	97.8	99.1
RPMI 5 mM glucose + 10% FBS, 15.4 µM	90.9	104	122
RPMI 5 mM glucose + 10% FBS, 46.1 µM	81.7	104	107
RPMI 5 mM glucose + 10% dialyzed FBS, 0.000781 µM	88.1	86.2	73.9
RPMI 5 mM glucose + 10% dialyzed FBS, 0.00234 µM	84.1	91.8	76.3
RPMI 5 mM glucose + 10% dialyzed FBS, 0.00702 µM	79.2	93.5	89.6
RPMI 5 mM glucose + 10% dialyzed FBS, 0.0211 µM	44.1	28.2	16.7
RPMI 5 mM glucose + 10% dialyzed FBS, 0.0632 µM	81.6	102	94.4
RPMI 5 mM glucose + 10% dialyzed FBS, 0.19 µM	86.7	102	86.2
RPMI 5 mM glucose + 10% dialyzed FBS, 0.569 µM	89	100	101
RPMI 5 mM glucose + 10% dialyzed FBS, 1.71 µM	89.9	92.3	98.6
RPMI 5 mM glucose + 10% dialyzed FBS, 5.12 µM	90.6	103	91.4
RPMI 5 mM glucose + 10% dialyzed FBS, 15.4 µM	98.4	99.1	97.6
RPMI 5 mM glucose + 10% dialyzed FBS, 46.1 µM	96	94	99.6

COc1ccc2c(c1)c(CC(=O)O)c(C)n2C(=O)c1ccc(Cl)cc1
AUC of viability dose-response curve
Details	NOMO1 [2]	P12-Ichikawa [1]	SEM cells [6]
HPLM + 10% dialyzed FBS	461	440	459
RPMI 5 mM glucose + 10% FBS	473	466	432
RPMI 5 mM glucose + 10% dialyzed FBS	460	466	466

CC(=O)OCCN1C(=O)c2c(C)nc3ccc([S+](=O)([O-])N4CCOCC4)cc3c2C1=O
AUC of viability dose-response curve
Details	HPLM + 10% dialyzed FBS	RPMI 5 mM glucose + 10% FBS	RPMI 5 mM glucose + 10% dialyzed FBS
NOMO1 [2]	337	299	329
SEM cells [6]	471	445	457

SEM cells [5], RPMI 5 mM glucose + 10% dialyzed FBS
Details	cell viability [%]
0.000781 µM	112
0.00234 µM	114
0.00702 µM	138
0.0211 µM	131
0.0632 µM	129
0.19 µM	148
0.569 µM	156
1.71 µM	140
5.12 µM	152
15.4 µM	120
46.1 µM	142

CC(/C=C1\SC(=S)N(CC(=O)O)C1=O)=C\c1ccccc1
AUC of viability dose-response curve
Details	NOMO1 [2]	P12-Ichikawa [1]	SEM cells [6]
HPLM + 10% dialyzed FBS	452	461	471
RPMI 5 mM glucose + 10% FBS	454	440	420
RPMI 5 mM glucose + 10% dialyzed FBS	472	457	476

COc1cc(OC)c(OC)cc1C=O
AUC of viability dose-response curve
Details	NOMO1 [2]	P12-Ichikawa [1]	SEM cells [6]
HPLM + 10% dialyzed FBS	467	455	439
RPMI 5 mM glucose + 10% FBS	474	440	450
RPMI 5 mM glucose + 10% dialyzed FBS	469	429	460

cell viability [%], SEM cells [5]
Details	HPLM + 10% dialyzed FBS	RPMI 5 mM glucose + 10% dialyzed FBS
0.000781 µM	98	113
0.00234 µM	111	96.5
0.00702 µM	111	130
0.0211 µM	109	144
0.0632 µM	108	148
0.19 µM	113	146
0.569 µM	88.7	94
1.71 µM	58.6	54
5.12 µM	122	126
15.4 µM	133	162
46.1 µM	139	130

CC(C)n1cnc2c(NCCCCCCNC(=O)OC(C)(C)C)nc(NCCO)nc21
AUC of viability dose-response curve
Details	NOMO1 [2]	P12-Ichikawa [1]	SEM cells [6]
HPLM + 10% dialyzed FBS	443	464	453
RPMI 5 mM glucose + 10% FBS	455	449	462
RPMI 5 mM glucose + 10% dialyzed FBS	469	449	454
